This is an account of results in PMC6218115, “In Vitro Potency and Preclinical Pharmacokinetic Comparison of All-D-Enantiomeric Peptides Developed for the Treatment of Alzheimer’s Disease” (Journal of Alzheimer's Disease, 2018).

Molecules are shown by their SMILES. Like-named read-outs stand apart in the source and are kept apart here. Non-standard residues stand in square brackets, D forms with d. Residues, ends and D or L forms follow the SMILES beside them.

Data set [1] in a line: Cell viability assay (MTT), Aβ1-42-induced cytotoxicity. The class given is cell-based, rat. How it is done:
The cells (10,000 cells/well) were incubated on collagen coated 96 well plates (Gibco, Life Technologies, # A11428-03) for growth in adherent cell culture (24 h, 37°C). Oligomeric Aβ was generated by incubating monomeric Aβ1 - 42 in sodium phosphate buffer (10 mM Na2HPO4/NaH2PO4, pH 7.4) at 21°C and 600 rpm agitation for 4.5 h. […] Absorbance readout was detected with a Polarstar Optima plate reader (BMG, Germany) at 570 and 660 nm. The relative cell viability [%] was calculated by normalizing the absorbance readout to the positive control (PC12 cells incubated with buffer). The IC50 value was determined by plotting the relative cell viability [%] against the respective D-peptides' concentrations. Datasets were fitted by nonlinear regression (logistic fit; OriginPro 9.0G).

Data set [2] can be described thus: Plasma protein binding, TRANSIL XL AGP binding kit. The class given is in vitro ADME, human. To be noted: TRANSIL XL AGP beads 0.04-3 μM, 5 μM peptide (3H-labelled + non-labelled), LSC read-out, nonlinear regression. As to the method: (§1) Plasma protein binding (PPB) to human serum albumin (HSA) and α1-acid glycoprotein (AGP) of ANK6, tANK6, and cANK6r was analyzed according to the manufacturer’s protocol of TRANSIL^XL HSA and AGP binding kits (Sovicell GmbH, Germany). To cover a larger range of HSA and AGP concentrations, the bead concentrations in the kit were modified. For detection, a mixture of ^3H-labelled and non-labelled ANK6, tANK6, and cANK6r (final concentrations of 5μM) was added to different concentrations of HSA (7.4μM to 420μM, 10–12 different concentrations) or AGP beads (0.04μM to 3μM, 9–12 different concentrations). The amount of unbound ANK6, tANK6, and cANK6r (in %) to HSA or AGP, respectively, was determined by liquid scintillation counter (LSC) measurements. The dissociation constants (KD) as well as the free drug fractions (fu) in human plasma were calculated as described before. Calculations were based on peptide concentrations detected in the blood 4 h after single oral administration of 10 mg/kg: 0.01μM ANK6, 0.01μM tANK6, and 0.01μM cANK6r.

Data set [3] has as its target human serum albumin (HSA) (Homo sapiens, UniProt P02768). The data set is described as follows: Plasma protein binding, TRANSIL XL HSA binding kit. Format: in vitro ADME. The note with it: TRANSIL XL HSA beads 7.4-420 μM, 5 μM peptide (3H-labelled + non-labelled), LSC read-out, nonlinear regression. As to the method: as §1
A further data set relates to tg-APPSwDI mice. The note with it: intraperitoneal treatment, 4 weeks; Klein et al.; cited from earlier work.

Sequence of human serum albumin (HSA) (P02768 25-609): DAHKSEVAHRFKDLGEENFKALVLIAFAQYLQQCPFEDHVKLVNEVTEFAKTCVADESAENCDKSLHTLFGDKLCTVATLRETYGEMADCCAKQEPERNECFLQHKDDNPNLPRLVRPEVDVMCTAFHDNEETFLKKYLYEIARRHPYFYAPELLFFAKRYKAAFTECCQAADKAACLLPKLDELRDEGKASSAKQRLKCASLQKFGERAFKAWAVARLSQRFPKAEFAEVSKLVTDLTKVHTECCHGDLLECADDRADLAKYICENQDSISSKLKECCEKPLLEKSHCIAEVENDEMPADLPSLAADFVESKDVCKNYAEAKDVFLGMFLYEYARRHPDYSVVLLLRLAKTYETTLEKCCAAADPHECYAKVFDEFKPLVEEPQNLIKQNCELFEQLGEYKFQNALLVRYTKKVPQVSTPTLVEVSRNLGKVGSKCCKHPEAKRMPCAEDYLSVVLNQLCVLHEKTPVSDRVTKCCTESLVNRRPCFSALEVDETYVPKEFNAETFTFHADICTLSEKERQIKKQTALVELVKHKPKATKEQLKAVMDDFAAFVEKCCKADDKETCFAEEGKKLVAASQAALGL

Take `CC[C@@H](C)[C@@H](NC(=O)[C@@H](CCCNC(=N)N)NC(=O)[C@@H](CCCCN)NC(=O)[C@H](N)CCCNC(=N)N)C(=O)N[C@H](CCCNC(=N)N)C(=O)N[C@H](CC(C)C)C(=O)N[C@@H](C(=O)N[C@@H](C(=O)N[C@H](CCCCN)C(=O)N[C@H](CCCCN)C(=O)N[C@H](CCCCN)C(=O)N[C@H](CCCNC(=N)N)C(=O)N[C@H](CCCNC(=N)N)C(=O)N[C@H](CCCCN)C(=O)N[C@H](CCCNC(=N)N)C(=O)N[C@@H](C(=O)N[C@H](CCCNC(=N)N)C(=O)N[C@H](CC(C)C)C(=O)N[C@@H](C(=O)N[C@@H](C(=O)N[C@H](CCCCN)C(=O)N[C@H](CCCCN)C(=O)N[C@H](CCCCN)C(=O)N[C@H](CCCNC(=N)N)C(N)=O)[C@H](C)O)C(C)C)[C@H](C)CC)[C@H](C)O)C(C)C` [tANK6] (H-[dR][dK][dR][dI][dR][dL][dV][dT][dK][dK][dK][dR][dR][dK][dR][dI][dR][dL][dV][dT][dK][dK][dK][dR]-NH2; N-terminus assumed): the IC50 in data set [1] came out at 4400 nM. The dissociation constant (Kd) in data set [2] stood at 60 nM.

With `CC[C@@H](C)[C@H]1NC(=O)[C@@H](CCCNC(=N)N)NC(=O)[C@@H](CCCCN)NC(=O)[C@@H](CCCNC(=N)N)NC(=O)[C@@H](CCCNC(=N)N)NC(=O)[C@@H](CCCNC(=N)N)NC(=O)[C@@H](CCCCN)NC(=O)[C@@H](CCCCN)NC(=O)[C@@H](CCCCN)NC(=O)[C@@H]([C@H](C)O)NC(=O)[C@@H](C(C)C)NC(=O)[C@@H](CC(C)C)NC(=O)[C@@H](CCCNC(=N)N)NC1=O` [cANK6r] (cyclo([dR][dK][dR][dI][dR][dL][dV][dT][dK][dK][dK][dR][dR])), in data set [1], the half-inhibitory concentration (IC50) was found to be 14000 nM. Moreover, in data set [2], the dissociation constant Kd stood at 280 nM.

Turning to `CC[C@@H](C)[C@@H](NC(=O)[C@@H](CCCNC(=N)N)NC(=O)[C@@H](CCCCN)NC(=O)[C@H](N)CCCNC(=N)N)C(=O)N[C@H](CCCNC(=N)N)C(=O)N[C@H](CC(C)C)C(=O)N[C@@H](C(=O)N[C@@H](C(=O)N[C@H](CCCCN)C(=O)N[C@H](CCCCN)C(=O)N[C@H](CCCCN)C(=O)N[C@H](CCCNC(=N)N)C(N)=O)[C@H](C)O)C(C)C` [ANK6] (H-[dR][dK][dR][dI][dR][dL][dV][dT][dK][dK][dK][dR]-NH2; N-terminus assumed), in data set [1] (PC12 cells, MTT, 1 μM oligomeric Aβ1-42, peptide 0.008-15 μM, overnight 37°C, quintuplicates, logistic fit, read-out: IC50, reduction of Aβ1-42-induced cytotoxicity (cell viability)), the concentration for half-maximal inhibition (IC50) was 11200 nM. In addition, the “KD to HSA” value in data set [3] is “not analyzable”. Further, the Kd in data set [2] worked out at 290 nM. Moreover, the “memory performance of tg-APPSwDI mice” value in the data set with tg-APPSwDI mice is on record as “a non-significant tendency for improving memory performance”.

A word on the IC50: it is the concentration that inhibits the measured activity by half. A word on the Kd: it is the constant that tells how readily two partners part at equilibrium.
